Measured values reported in patent publication US6545007B2, “Methods for inhibiting the transmission of HIV using topically applied substituted 6-benzyl-4-oxopyrimidines” (Idenix (Cayman) Limited, priority 2000, dated 2003).
pEC50: −log10 of the molar value. Read-outs that look alike come from different tables or passages of the source.

Legend:
[1] = tested on: HIV-1 (IIIB strain); format: cell-based; conditions: for pEC50: anti-HIV-1 activity; for SI: selectivity index (CC50/EC50)
Description: Compounds. Compounds were solubilized in DMSO at 200 mM and then diluted into culture medium.
(§1) Cells and viruses. MT-4, C8166,H9/IIIB and CEM cells were grown at 37° C. in a 5% CO2 atmosphere in RPMI 1640 medium, supplemented with 10% fetal calf serum (FCS), 100 IU/mL penicillin and 100 μg/mL streptomycin. Cell cultures were checked periodically for the absence of mycoplasma contamination with a MycoTect Kit (Gibco). Human immunodeficiency virus type-I (HIV-1, IIIB strain) was obtained from supernatants of persistently infected H9/IIIB cells.
HIV Titration. Titration of HIV was performed in C8166 cells by the standard limiting dilution method (dilution 1:2, four replica wells per dilution) in 96-well plates. The infectious virus titre was determined by light microscope scoring of cytopathicity after 4 days of incubation and the virus titres were expressed as CCID50/mL.
(§2) Anti-HIV Assays. Activity of the compounds against HIV-1 and HIV-2 multiplication in acutely infected cells was based on the inhibition of virus-induced cytopathicity in MT-4 and C8166 cells, respectively. Briefly, 50 μL of culture medium containing 1×10^4 cells were added to each well of flat-bottom microtiter trays containing 50 μl of culture medium with or without various concentrations of the test compounds. Then 20 μL of an HIV suspension containing 100 CCID50 were added. After a 4-day incubation at 37° C., the number of viable cells was determined by the 3-(4,5-dimethylthiazol-[…])-2,5-diphenyltetrazolium bromide (MTT) method. Cytotoxicity of the compounds was evaluated in parallel with their antiviral activity. It was based on the viability of mock-infected cells, as monitored by the MTT method.

[2] = tested on: mock-infected MT-4 cells; assay: Cytotoxicity: viability of mock-infected cells by the MTT method; format: cell-based, human
Description: as §1, §2

[3] = tested on: HIV-1; conditions: MT-4 cells infected with very high virus load; p24 ELISA of cell-free supernatants at 4 day intervals for 4 weeks
Description: To evaluate the antiviral activity of test compounds the following cell types were used: T lymphocytes (PBLs) and monocytes from peripheral blood of healthy donors; U937, human monocyte cell line permissive for HIV replication; C8166 and MT-4, human CD^4+ T-cell lines permissive for HIV replication; H9, human CD4+ T-cell line permissive for HIV replication, but partially resistant to its cytopathic effect; H9/IIIB, subclone of H9 cells chronically infected with HIV-1 (strain IIIB). […] Cells were grown in RPMI-1640 (H9, MT-4, C8166, U937, PBMC, PBL) or in DMEM (HeLa, ME-180, fibroblasts) medium supplemented with 10% FCS, 100 units/mL penicillin and 100 μg/mL streptomycin. The cultures were incubated at 37° C. in a humidified, 5% CO2 atmosphere. The absence of mycoplasma contamination was periodically checked by the Hoechst staining method.
HIV-1(strains IIIB, NM, RF, Ba-L) and HIV-2 (ROD strain) were obtained from the supernatant of persistently infected cells. The CBL-20 strain of HIV-2, kindly obtained from “MRC AIDS Directed Program Reagent Project”, was propagated in MT-4 cells. Clinical isolates of HIV-1 from peripheral blood and from seminal fluid, were propagated in PBLs. The HIV stock solutions were titrated in C8166 cells and kept at −80° C. until use.
The levels of p24 viral protein were determined in the cell-free culture supernatants by the HIV-1 p24 antigen enzyme-linked immunosorbent assay kit (ELISA, Abbott).
To evaluate the ability of compounds to extinguish the infection, the following experimental conditions were followed. 10^6 MT-4 cells were infected at 20° C. for 1 hr with a very high virus load (up to 10 CCID50/cell; 1 CCID50=25-250 infectious virions), in the absence or in the presence of test compounds. […] For 4 weeks, at 4 days intervals, the anti-HIV activity of test compounds, alone and in combination, was evaluated by determining the following parameters: p24 levels; virus-induced cytopathogenicity; infectious virus yield; DNA and RNA viral sequences (by PCR).

[4] = acutely infected MT-4 cells, MTT

Structure (SMILES): CCc1c(Cc2c(F)cccc2F)nc(SCSC)[nH]c1=O [MC 1157]
- pEC50 [1, 4]: 6.96
- CC50 ([2]; MTT): 50000 nM

Structure (SMILES): CSCSc1nc(Cc2c(F)cccc2F)cc(=O)[nH]1 [MC 1161, 6-(2,6-Difluorophenyhnethyl)-3,4-dihydro-2-(methylthiomethyl)thiopyrimidin-4-(3H)-one]
- pEC50 [1, 4]: 6.10
- CC50 ([2]; MTT): > 200000 nM

Structure (SMILES): CSCSc1nc(Cc2c(F)cccc2F)c(C)c(=O)[nH]1 [MC 1162, 6-(2,6-Difluorophenylmethyl)-3,4-dihydro-5-methyl-2-(methylthiomethyl)thiopyrimidin-4(3H)-one]
- pEC50 [1, 4]: 6.92
- CC50 ([2]; MTT): 30000 nM

Structure (SMILES): CNc1nc(Cc2c(F)cccc2F)cc(=O)[nH]1 [MC 1167]
- pEC50 ([1]; HIV-1-infected MT-4 cells): 5.82
- SI [1]: >133
- CC50 [2]: > 200000 nM

Structure (SMILES): CNc1nc(Cc2c(F)cccc2F)c(C)c(=O)[nH]1 [MC 1168]
- pEC50 ([1]; HIV-1-infected MT-4 cells): 6.40
- SI [1]: 335
- CC50 [2]: 135000 nM

Structure (SMILES): CNc1nc(C(C)c2c(F)cccc2F)c(C)c(=O)[nH]1 (stereo not drawn) [MC 1170]
- pEC50 [1, 4]: 7.52
- CC50 ([2]; MTT): ≥ 200000 nM

Structure (SMILES): Cc1c(C(C)c2c(F)cccc2F)nc(SC2CCCCC2)[nH]c1=O (stereo not drawn) [MC 1174]
- pEC50 [1, 4]: 7.74
- CC50 ([2]; MTT): > 200000 nM

Structure (SMILES): CCCCSc1nc(C(C)c2c(F)cccc2F)c(C)c(=O)[nH]1 (stereo not drawn) [MC 1175]
- pEC50 [1, 4]: 8.10
- CC50 ([2]; MTT): 112000 nM

Structure (SMILES): CNc1nc(C(C)c2c(F)cccc2F)cc(=O)[nH]1 (stereo not drawn) [MC 1178]
- pEC50 [1, 4]: 6.96
- CC50 ([2]; MTT): 106000 nM

Structure (SMILES): CC(c1cc(=O)[nH]c(NC2CCCCC2)n1)c1c(F)cccc1F (stereo not drawn) [MC 1180]
- pEC50 [1, 4]: 7.70
- CC50 ([2]; MTT): 56000 nM

Structure (SMILES): Cc1c(C(C)c2c(F)cccc2F)nc(NC2CCCCC2)[nH]c1=O (stereo not drawn) [MC 1181]
- pEC50 [1, 4]: 7.52
- CC50 ([2]; MTT): 58000 nM

Structure (SMILES): CN(C)c1nc(Cc2c(F)cccc2F)cc(=O)[nH]1 [MC 1182, 6-(2,6-Difluorophenylmethyl)-3,4-dihydro-2-N,N-dimethylaminopyrimidin-4-(3H)-one]
- pEC50 [1, 4]: 7.30
- CC50 ([2]; MTT): > 200000 nM

Structure (SMILES): CN1CCN(c2nc(Cc3c(F)cccc3F)cc(=O)[nH]2)CC1 [MC 1183]
- pEC50 [1, 4]: 5.15
- CC50 ([2]; MTT): > 200000 nM

Structure (SMILES): CCCCNc1nc(Cc2c(F)cccc2F)c(C)c(=O)[nH]1 [MC 1185]
- pEC50 [1, 4]: 7.70
- CC50 ([2]; MTT): > 200000 nM

Structure (SMILES): CCCNc1nc(Cc2c(F)cccc2F)c(C)c(=O)[nH]1 [MC 1186]
- pEC50 ([1]; HIV-1-infected MT-4 cells): 7.70
- SI [1]: >10,000
- CC50 [2]: > 200000 nM

Structure (SMILES): CCCCNc1nc(C(C)c2c(F)cccc2F)c(C)c(=O)[nH]1 (stereo not drawn) [MC 1187]
- pEC50 [1, 4]: 8.00
- CC50 ([2]; MTT): 83000 nM

Structure (SMILES): O=c1cc(Cc2c(F)cccc2F)nc(N2CCOCC2)[nH]1 [MC 1188]
- pEC50 [1, 4]: 6.22
- CC50 ([2]; MTT): > 200000 nM

Structure (SMILES): CCCCNc1nc(C(C)c2c(F)cccc2F)cc(=O)[nH]1 (stereo not drawn) [MC 1189]
- pEC50 [1, 4]: 7.52
- CC50 ([2]; MTT): 52000 nM

Structure (SMILES): CCCNc1nc(C(C)c2c(F)cccc2F)cc(=O)[nH]1 (stereo not drawn) [MC 1190]
- pEC50 [1, 4]: 7.70
- CC50 ([2]; MTT): 103000 nM

Structure (SMILES): CC(C)Nc1nc(C(C)c2c(F)cccc2F)cc(=O)[nH]1 (stereo not drawn) [MC 1191]
- pEC50 [1, 4]: 7.52
- CC50 ([2]; MTT): 115000 nM

Structure (SMILES): CCC(C)Nc1nc(C(C)c2c(F)cccc2F)cc(=O)[nH]1 (stereo not drawn) [MC 1192]
- pEC50 [1, 4]: 7.40
- CC50 ([2]; MTT): 86000 nM

Structure (SMILES): O=c1cc(Cc2c(F)cccc2F)nc(N2CCSCC2)[nH]1 [MC 1193]
- pEC50 [1, 4]: 7.30
- CC50 ([2]; MTT): > 200000 nM

Structure (SMILES): O=c1cc(Cc2c(F)cccc2F)nc(N2CCCCC2)[nH]1 [MC 1194]
- pEC50 [1, 4]: 7.70
- CC50 ([2]; MTT): > 200000 nM

Structure (SMILES): Cc1c(Cc2c(F)cccc2F)nc(N(C)C)[nH]c1=O [MC 1195]
- pEC50 [1, 4]: 7.70
- CC50 ([2]; MTT): > 200000 nM

Structure (SMILES): O=c1cc(Cc2c(F)cccc2F)nc(N2CCCC2)[nH]1 [MC 1196]
- pEC50 [1, 4]: 5.68
- CC50 ([2]; MTT): > 200000 nM

Structure (SMILES): CCN(CC)c1nc(Cc2c(F)cccc2F)cc(=O)[nH]1 [MC 1202]
- pEC50 [1, 4]: 6.59
- CC50 ([2]; MTT): > 200000 nM

Structure (SMILES): Cc1c(Cc2c(F)cccc2F)nc(N2CCN(C)CC2)[nH]c1=O [MC 1203]
- pEC50 [1, 4]: 6.44
- CC50 ([2]; MTT): > 200000 nM

Structure (SMILES): CCCN(CCC)c1nc(Cc2c(F)cccc2F)cc(=O)[nH]1 [MC 1204]
- pEC50 [1, 4]: 5.42
- CC50 ([2]; MTT): > 200000 nM

Structure (SMILES): Cc1c(Cc2c(F)cccc2F)nc(N2CCOCC2)[nH]c1=O [MC 1205]
- pEC50 [1, 4]: 7.33
- CC50 ([2]; MTT): > 200000 nM

Structure (SMILES): Cc1c(Cc2c(F)cccc2F)nc(N2CCSCC2)[nH]c1=O [MC 1206]
- pEC50 [1, 4]: 7.05
- CC50 ([2]; MTT): > 200000 nM

Structure (SMILES): Cc1c(C(C)c2c(F)cccc2F)nc(N(C)C)[nH]c1=O (stereo not drawn) [MC 1220]
- concentration able to maintain a sustained reduction of p24 in the culture supernatants [3]: 3.5 µM

Structure (SMILES): Cc1c(C(C)c2c(F)cccc2F)nc(SC2CCCC2)[nH]c1=O (stereo not drawn) [MC-1047, 2-Cyclopentylthio-6-{1-(2,6-difluorophenyl)ethyl}-3,4-dihydro-5-methylpyrimidin-4(3H)-one]
- pEC50 ([1]; HIV-1-infected MT-4 cells): 8.05
- SI [1]: >22,222
- CC50 [2]: > 200000 nM
- concentration able to maintain a sustained reduction of p24 in the culture supernatants [3]: 10 µM

Structure (SMILES): Cc1ccnc2c1NC(=O)c1cccnc1N2C1CC1 [Nevirapine, 11-cyclopropyl-5,11-dihydro-4-methyl-6H-dipyridol{3,2-b:2′,3′-e}diazepin-6-one, reference compound]
- concentration able to maintain a sustained reduction of p24 in the culture supernatants [3]: 300 µM
